Assay results: ChEMBL document CHEMBL3112450, “Synthesis and in vitro antitumor evaluation of primary amine substituted quinazoline linked benzimidazole” (Bioorg Med Chem Lett, 2014)

Assays:
Type in all cases: functional
[1] = Cytotoxicity against human EKVX cells assessed as cell growth at 10^-5 M after 48 hrs by SRB assay; conditions: read-out: Activity
A498 [2] = experiment: Cytotoxicity against human A498 cells assessed as growth inhibition at 10 uM after 48 hrs by SRB assay; conditions: A498, 48 h, read-out: GI
MCF7 [3] = experiment: Cytotoxicity against human MCF7 cells assessed as cell growth at 10^-4 M after 48 hrs by SRB assay; conditions: MCF7, 48 h, read-out: Activity
COLO 205 [4] = experiment: Cytotoxicity against human COLO205 cells assessed as cell growth at 10^-8 M after 48 hrs by SRB assay; conditions: COLO 205, 48 h, read-out: Activity
SF-539 = experiment: Cytotoxicity against human SF539 cells assessed as cell growth at 10^-6 M after 48 hrs by SRB assay; conditions: SF-539, 48 h, read-out: Activity
MCF7 [5] = experiment: Cytotoxicity against human MCF7 cells assessed as cell growth at 10^-6 M after 48 hrs by SRB assay; conditions: MCF7, 48 h, read-out: Activity
NCI-H322M = experiment: Cytotoxicity against human NCI-H322M cells assessed as cell growth at 10^-7 M after 48 hrs by SRB assay; conditions: read-out: Activity
HL-60(TB) = experiment: Cytotoxicity against human HL-60(TB) cells assessed as cell growth at 10^-8 M after 48 hrs by SRB assay; conditions: HL-60, 48 h, read-out: Activity
DU-145 [6] = experiment: Cytotoxicity against human DU145 cells assessed as cell growth at 10^-7 M after 48 hrs by SRB assay; conditions: DU-145, 48 h, read-out: Activity
DU-145 [7] = experiment: Cytotoxicity against human DU145 cells assessed as cell growth at 10^-8 M after 48 hrs by SRB assay; conditions: DU-145, 48 h, read-out: Activity
COLO 205 [8] = experiment: Cytotoxicity against human COLO205 cells assessed as cell growth at 10^-6 M after 48 hrs by SRB assay; conditions: COLO 205, 48 h, read-out: Activity
HOP-62 [9] = experiment: Cytotoxicity against human HOP62 cells after 48 hrs by SRB assay; conditions: HOP-62, 48 h
SN12C = experiment: Cytotoxicity against human SN12C cells after 48 hrs by SRB assay
SK-MEL-5 = experiment: Cytotoxicity against human SK-MEL-5 cells assessed as cell growth at 10^-6 M after 48 hrs by SRB assay; conditions: SK-MEL-5, 48 h, read-out: Activity
KM12 = experiment: Cytotoxicity against human KM12 cells after 48 hrs by SRB assay; conditions: KM12, 48 h
786-0 = experiment: Cytotoxicity against human 786-0 cells assessed as cell growth at 10^-6 M after 48 hrs by SRB assay; conditions: 786-0, 48 h, read-out: Activity
[10] = Cytotoxicity against human UO31 cells assessed as cell growth at 10^-8 M after 48 hrs by SRB assay; conditions: UO-31, 48 h, read-out: Activity
RPMI-8226 = experiment: Cytotoxicity against human RPMI8226 cells assessed as cell growth at 10^-7 M after 48 hrs by SRB assay; conditions: RPMI-8226, 48 h, read-out: Activity
BT-549 = experiment: Cytotoxicity against human BT549 cells assessed as cell growth at 10^-6 M after 48 hrs by SRB assay; conditions: BT-549, 48 h, read-out: Activity
LOX IMVI [11] = experiment: Cytotoxicity against human LOXIMVI cells assessed as cell growth at 10^-7 M after 48 hrs by SRB assay; conditions: read-out: Activity
UACC-62 = experiment: Cytotoxicity against human UACC62 cells assessed as cell growth at 10^-6 M after 48 hrs by SRB assay; conditions: UACC-62, 48 h, read-out: Activity
HCT-15 = experiment: Cytotoxicity against human HCT15 cells assessed as cell growth at 10^-8 M after 48 hrs by SRB assay; conditions: HCT-15, 48 h, read-out: Activity
OVCAR-3 = experiment: Cytotoxicity against human OVCAR3 cells assessed as cell growth at 10^-6 M after 48 hrs by SRB assay; conditions: OVCAR-3, 48 h, read-out: Activity
SW-620 = experiment: Cytotoxicity against human SW620 cells assessed as cell growth at 10^-4 M after 48 hrs by SRB assay; conditions: SW-620, 48 h, read-out: Activity
HOP-92 = experiment: Cytotoxicity against human HOP92 cells after 48 hrs by SRB assay; conditions: HOP-92, 48 h
A498 [12] = experiment: Cytotoxicity against human A498 cells assessed as cell growth at 10^-8 M after 48 hrs by SRB assay; conditions: A498, 48 h, read-out: Activity
RXF 393 = experiment: Cytotoxicity against human RXF393 cells assessed as cell growth at 10^-6 M after 48 hrs by SRB assay; conditions: RXF 393, 48 h, read-out: Activity
CAKI-1 [13] = experiment: Cytotoxicity against human Caki1 cells assessed as cell growth at 10^-6 M after 48 hrs by SRB assay; conditions: CAKI-1, 48 h, read-out: Activity
LOX IMVI [14] = experiment: Cytotoxicity against human LOXIMVI cells assessed as cell growth at 10^-6 M after 48 hrs by SRB assay; conditions: read-out: Activity
ACHN = experiment: Cytotoxicity against human ACHN cells after 48 hrs by SRB assay
MDA-MB-231 = experiment: Cytotoxicity against human MDA-MB-231 cells assessed as cell growth at 10^-4 M after 48 hrs by SRB assay; conditions: MDA-MB-231, 48 h, read-out: Activity
[15] = Cytotoxicity against human OVCAR5 cells assessed as cell growth at 10^-7 M after 48 hrs by SRB assay; conditions: OVCAR-5, 48 h, read-out: Activity
HCC 2998 = experiment: Cytotoxicity against human HCC2998 cells assessed as cell growth at 10^-8 M after 48 hrs by SRB assay; conditions: HCC 2998, 48 h, read-out: Activity
HOP-62 [16] = experiment: Cytotoxicity against human HOP62 cells assessed as cell growth at 10^-4 M after 48 hrs by SRB assay; conditions: HOP-62, 48 h, read-out: Activity
OVCAR-8 = experiment: Cytotoxicity against human OVCAR8 cells assessed as cell growth at 10^-6 M after 48 hrs by SRB assay; conditions: OVCAR-8, 48 h, read-out: Activity
CAKI-1 [17] = experiment: Cytotoxicity against human Caki1 cells assessed as cell growth at 10^-4 M after 48 hrs by SRB assay; conditions: CAKI-1, 48 h, read-out: Activity
M14 = experiment: Cytotoxicity against human M14 cells assessed as cell growth at 10^-7 M after 48 hrs by SRB assay; conditions: M14, 48 h, read-out: Activity
K562 = experiment: Cytotoxicity against human K562 cells assessed as cell growth at 10^-7 M after 48 hrs by SRB assay; conditions: K562, 48 h, read-out: Activity
SK-MEL-2 = experiment: Cytotoxicity against human SK-MEL-2 cells assessed as cell growth at 10^-4 M after 48 hrs by SRB assay; conditions: SK-MEL-2, 48 h, read-out: Activity

Question: What does the source list for `C=CCn1c(C)nc2ccc(Nc3nc(Sc4ccc(N)cc4)nc4ccccc34)cc21`?
Answer: growth at 10 µM [1]: 96.5%; inhibition of growth at 10 µM (A498 [2]): 50%

Question: With `C=CCn1c(C)nc2ccc(Nc3nc(Nc4ncccn4)nc4ccccc34)cc21` as the molecule, how does the growth at 10 µM [1] read?
Answer: 87.2%

Question: What does the source list for `C=CCn1c(C)nc2ccc(Nc3nc(Nc4ccc(F)cc4)nc4ccccc34)cc21`?
Answer: growth at 100 µM (MCF7 [3]): -37%; growth at 0.01 µM (COLO 205 [4]): 97%; growth at 1 µM (SF-539): 89%; growth at 1 µM (MCF7 [5]): 73%; growth at 0.1 µM (NCI-H322M): 96%; growth at 0.01 µM (HL-60(TB)): 94%; growth at 0.1 µM (DU-145 [6]): 98%; growth at 0.01 µM (DU-145 [7]): 100%; growth at 1 µM (COLO 205 [8]): 95%; GI50 (HOP-62 [9]): 1.88 µM; TGI (HOP-62 [9]): 3.76 µM; GI50 (SN12C): 2.78 µM; LC50 (SN12C): > 100 µM; TGI (SN12C): 15.1 µM; growth at 1 µM (SK-MEL-5): 73%; GI50 (KM12): 4.07 µM; LC50 (concentration killing 50% of cells) (KM12): 51.8 µM; TGI (KM12): 16.4 µM; growth at 1 µM (786-0): 96%; inhibition of growth at 10 µM (A498 [2]): 40%; growth at 0.01 µM [10]: 87%; growth at 0.1 µM (RPMI-8226): 103%; growth at 1 µM (BT-549): 82%; growth at 0.1 µM (LOX IMVI [11]): 98%; growth at 1 µM (UACC-62): 91%; growth at 0.01 µM (HCT-15): 99%; growth at 1 µM (OVCAR-3): 97%; growth at 100 µM (SW-620): -48%; GI50 (HOP-92): 0.585 µM; LC50 (HOP-92): 36.2 µM; TGI (HOP-92): 6.97 µM; growth at 0.01 µM (A498 [12]): 81%; growth at 1 µM (RXF 393): 64%; growth at 1 µM (CAKI-1 [13]): 93%; growth at 1 µM (LOX IMVI [14]): 96%; GI50 (ACHN): 1.99 µM; LC50 (ACHN): 9.33 µM; TGI (ACHN): 4.31 µM; growth at 100 µM (MDA-MB-231): -37%; growth at 0.1 µM [15]: 101%; growth at 0.01 µM (HCC 2998): 95%; growth at 100 µM (HOP-62 [16]): -46%; growth at 1 µM (OVCAR-8): 93%; growth at 100 µM (CAKI-1 [17]): -53%; growth at 0.1 µM (M14): 97%; growth at 0.1 µM (K562): 103%; growth at 100 µM (SK-MEL-2): -70%

Question: With `C=CCn1c(C)nc2cc(Nc3nc(Nc4ccc5nc(C)n(CC=C)c5c4)nc4ccccc34)ccc21` as the molecule, how does the growth at 10 µM [1] read?
Answer: 97.1%
